Residue numbers refer to the chain shown, from its start.
Tests used:
FicD^H363A = biological target: T1, FicD^H363A (Homo sapiens, UniProt Q9BVA6, H363A); experiment: MIDAS metabolite screen, FicD^H363A; type: binding; conditions: cutoff Q < 0.05 and |Log2 corrected fold change| > 2, metabolites 5 µM
T1 construct: soluble ER luminal domain (residues 105 to 458) of wild-type human FicD and three mutants; 6xHis-Sumo (N, cleaved yes); made in house; host or cells: Rosetta(DE3) E. coli
T1 sequence (Q9BVA6 105-458 H363A): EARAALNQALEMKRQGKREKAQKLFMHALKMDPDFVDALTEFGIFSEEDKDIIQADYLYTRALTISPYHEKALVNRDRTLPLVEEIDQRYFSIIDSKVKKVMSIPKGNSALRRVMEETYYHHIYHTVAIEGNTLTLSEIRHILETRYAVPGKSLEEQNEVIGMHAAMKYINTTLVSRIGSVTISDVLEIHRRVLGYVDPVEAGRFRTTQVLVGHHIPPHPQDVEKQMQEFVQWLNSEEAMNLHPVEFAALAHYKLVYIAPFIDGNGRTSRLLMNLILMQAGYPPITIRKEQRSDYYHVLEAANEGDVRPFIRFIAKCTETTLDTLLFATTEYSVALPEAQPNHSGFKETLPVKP
Excerpt: To identify small-molecule metabolite interactions with FicD, we applied an unbiased high-throughput screening approach known as MIDAS ([44]). Given the high concentrations of protein required for MIDAS screening, we purified the soluble ER luminal domain (residues 105 to 458) of wild-type human FicD and three mutants FicD^E234G, FicD^L258D, and FicD^H363A for screening (Fig. 1A). These mutants were selected based on their well-established biochemical features ([23], [24], [31]). All three are predicted to enhance detection of protein–metabolite interactions (PMIs) relative to FicD^WT through increased affinity for nucleotide substrates (FicD^E234G), improved solubility (FicD^L258D), and loss of catalytic turnover (FicD^H363A) (Fig. 1A). To decrease the potential for nonspecific small-molecule binding, we ensured the purity of our FicD proteins (SI Appendix, Fig. S1 A and B). As reported by other investigators ([24], [31]), we observe an increase in elution volume of the FicD^L258D mutant, consistent with its monomerization (SI Appendix, Fig. S1C).
Out of the 602 naturally occurring human metabolites in the MIDAS library, we applied a significance cutoff (q value < 0.05) to identify 12 PMIs with a Log2 (corrected fold change) of >2 and two PMIs with a Log2 (corrected fold change) <-2 in the FicD^WT screen (Fig. 1B and SI Appendix, Table S2). Hits were additionally triaged based on detection of multiple adducts of the metabolite in a single dataset (FPP and […] in Fig. 1B) and identification of the same metabolites across three or more of the FicD construct screens (Fig. 1C). Three chemical classes passed this initial triage: adenosine nucleotides, isoprenoid diphosphates, and thyroid hormone intermediates (Fig. 1 B and C and SI Appendix, Tables S2–S5).
22°C. Induced cultures were then harvested by centrifugation at 8000G for 15 minutes at 4°C and […]
Bacterial pellets were resuspended in 30-50mL of 50mM Tris pH 7.4/150mM NaCl/10% glycerol with one Roche cOmplete EDTA-Free Protease inhibitor cocktail tablet (cat no. COEDTAF-RO).
Triton-X100 to a final concentration of 0.2%, Chicken-egg lysozyme to a final concentration of 0.4ug/mL, and 2-5uL of Millipore Benzonase Nuclease (cat no. 70664) were added to bacterial suspension prior to sonication at 40-50% amplitude for 1-3 minutes in pulses of 5 seconds on and 30 seconds off on ice with a Sonics VCX 750 Ultrasonicator. Bacterial lysate was then clarified by centrifugation at 30,000 x g for 30 minutes at 4°C.
Clarified lysate was rotated with Qiagen NiNTA agarose beads (cat no. 30210) for 1-2 hours at 4°C. […]

FicD^WT = biological target: T2, FicD^WT (Homo sapiens, UniProt Q9BVA6); experiment: MIDAS equilibrium dialysis/mass spectrometry metabolite screen, FicD^WT; type: binding; conditions: cutoff Q < 0.05 and |Log2 corrected fold change| > 2, metabolites 5 µM
T2 construct: soluble ER luminal domain (residues 105 to 458) of wild-type human FicD; 6xHis-Sumo (N, cleaved yes); made in house; host or cells: Rosetta(DE3) E. coli
T2 sequence (Q9BVA6 105-458): T1 sequence (Q9BVA6 105-458 H363A) with A259H

SMILES	MIDAS protein-metabolite interaction (enrichment/depletion) (FicD^H363A)	MIDAS protein-metabolite interaction (enrichment/depletion) (FicD^WT)
CC(C)=CCC/C(C)=C/COP(=O)(O)OP(=O)(O)O [GPP, geranyl-pyrophosphate]	significantly enriched	significantly enriched
CC(C)=CCC/C(C)=C/CC/C(C)=C/COP(=O)(O)OP(=O)(O)O [FPP, farnesyl-pyrophosphate]	significantly enriched	significantly enriched
Nc1ncnc2c1ncn2[C@@H]1O[C@H](COP(=O)(O)OP(=O)(O)O)[C@@H](O)[C@H]1O [ADP]	significantly enriched	significantly enriched

Source: PMC12974487, “Inhibition of FicD-mediated AMPylation and deAMPylation by isoprenoid diphosphates” (Proceedings of the National Academy of Sciences of the …, 2026)
